{
  "source": "ChEMBL document CHEMBL1201862",
  "about": "“PubChem BioAssay data set” (2004)",
  "test_in_all_cases": "NCI tumour cell line growth inhibition, 48 h",
  "key": {"786-0": {"system": "786-0"}, "A498": {"system": "A498"}, "A549": {"system": "A549"}, "ACHN": {"system": "ACHN"}, "BT-549": {"system": "BT-549"}, "CAKI-1": {"system": "CAKI-1"}, "CCRF-CEM": {"system": "CCRF-CEM"}, "COLO 205": {"system": "COLO 205"}, "DU-145": {"system": "DU-145"}, "EKVX": {"system": "EKVX"}, "HCC 2998": {"system": "HCC 2998"}, "HCT-116": {"system": "HCT-116"}, "HCT-15": {"system": "HCT-15"}, "HL-60": {"system": "HL-60"}, "HOP-62": {"system": "HOP-62"}, "HOP-92": {"system": "HOP-92"}, "HT-29": {"system": "HT-29"}, "Hs-578T": {"system": "Hs-578T"}, "IGROV-1": {"system": "IGROV-1"}, "K562": {"system": "K562"}, "KM12": {"system": "KM12"}, "LOX IMVI": {"system": "LOX IMVI"}, "M14": {"system": "M14"}, "MCF7": {"system": "MCF7"}, "MDA-MB-231": {"system": "MDA-MB-231"}, "MDA-MB-435": {"system": "MDA-MB-435"}, "MDA-N": {"system": "MDA-N"}, "MOLT-4": {"system": "MOLT-4"}, "Malme-3M": {"system": "Malme-3M"}, "NCI-H226": {"system": "NCI-H226"}, "NCI-H23": {"system": "NCI-H23"}, "NCI-H460": {"system": "NCI-H460"}, "NCI-H522": {"system": "NCI-H522"}, "NCI/ADR-RES": {"system": "NCI/ADR-RES"}, "OVCAR-3": {"system": "OVCAR-3"}, "OVCAR-4": {"system": "OVCAR-4"}, "OVCAR-5": {"system": "OVCAR-5"}, "OVCAR-8": {"system": "OVCAR-8"}, "PC-3": {"system": "PC-3"}, "RPMI-8226": {"system": "RPMI-8226"}, "RXF 393": {"system": "RXF 393"}, "SF-268": {"system": "SF-268"}, "SF-295": {"system": "SF-295"}, "SF-539": {"system": "SF-539"}, "SK-MEL-28": {"system": "SK-MEL-28"}, "SK-MEL-2": {"system": "SK-MEL-2"}, "SK-MEL-5": {"system": "SK-MEL-5"}, "SK-OV-3": {"system": "SK-OV-3"}, "SN12C": {"system": "SN12C"}, "SNB-19": {"system": "SNB-19"}, "SNB-75": {"system": "SNB-75"}, "SR": {"system": "SR"}, "SW-620": {"system": "SW-620"}, "T47D": {"system": "T47D"}, "TK-10": {"system": "TK-10"}, "U-251": {"system": "U-251"}, "UACC-257": {"system": "UACC-257"}, "UACC-62": {"system": "UACC-62"}, "UO-31": {"system": "UO-31"}},
  "note": "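1) Cells in 96-well plates. 2) Compound, 48 h, 5 concentrations. 3) Linear interpolation between surrounding doses. 4) Unreached endpoint = highest concentration. At the GI50, growth is halved.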 Active and inactive are the calls of the source. Rule as the data show it: active = GI50 up to about 1.1 µM and inactive = higher.",
  "data": [
    {"smiles": "CC1OC(O)CC(N(C)C)C1O.CC1OC(O)CCC1O.CCC1CC(O)c2c(O)c3c(c(O)c2C1O)C(=O)c1cccc(O)c1C3=O", "note": "(centres undefined)", "values": [
      {"measurement": "GI50", "setting": "786-0", "value": "12.4 nM (active)"},
      {"measurement": "GI50", "setting": "A498", "value": "11.4 nM (active)"},
      {"measurement": "GI50", "setting": "A549", "value": "31.3 nM (active)"},
      {"measurement": "GI50", "setting": "ACHN", "value": "15.9 nM (active)"},
      {"measurement": "GI50", "setting": "BT-549", "value": "44.8 nM (active)"},
      {"measurement": "GI50", "setting": "CAKI-1", "value": "15.6 nM (active)"},
      {"measurement": "GI50", "setting": "CCRF-CEM", "value": "22.3 nM (active)"},
      {"measurement": "GI50", "setting": "COLO 205", "value": "20.9 nM (active)"},
      {"measurement": "GI50", "setting": "DU-145", "value": "33.3 nM (active)"},
      {"measurement": "GI50", "setting": "EKVX", "value": "28.1 nM (active)"},
      {"measurement": "GI50", "setting": "HCC 2998", "value": "19.7 nM (active)"},
      {"measurement": "GI50", "setting": "HCT-116", "value": "7.71 nM (active)"},
      {"measurement": "GI50", "setting": "HCT-15", "value": 38.1, "unit": "nM"},
      {"measurement": "GI50", "setting": "HL-60", "value": "30.5 nM (active)"},
      {"measurement": "GI50", "setting": "HOP-62", "value": "34 nM (active)"},
      {"measurement": "GI50", "setting": "HOP-92", "value": "10 nM (active)"},
      {"measurement": "GI50", "setting": "HT-29", "value": "12.6 nM (active)"},
      {"measurement": "GI50", "setting": "Hs-578T", "value": "50.7 nM (active)"},
      {"measurement": "GI50", "setting": "IGROV-1", "value": "28.4 nM (active)"},
      {"measurement": "GI50", "setting": "K562", "value": "5.97 nM (active)"},
      {"measurement": "GI50", "setting": "KM12", "value": "20.9 nM (active)"},
      {"measurement": "GI50", "setting": "LOX IMVI", "value": "13.5 nM (active)"},
      {"measurement": "GI50", "setting": "M14", "value": "18.8 nM (active)"},
      {"measurement": "GI50", "setting": "MCF7", "value": "32.5 nM (active)"},
      {"measurement": "GI50", "setting": "MDA-MB-231", "value": "27.5 nM (active)"},
      {"measurement": "GI50", "setting": "MDA-MB-435", "value": "23 nM (active)"},
      {"measurement": "GI50", "setting": "MDA-N", "value": "28.4 nM (active)"},
      {"measurement": "GI50", "setting": "MOLT-4", "value": "28.4 nM (active)"},
      {"measurement": "GI50", "setting": "Malme-3M", "value": "21 nM (active)"},
      {"measurement": "GI50", "setting": "NCI-H226", "value": "16.8 nM (active)"},
      {"measurement": "GI50", "setting": "NCI-H23", "value": "30.1 nM (active)"},
      {"measurement": "GI50", "setting": "NCI-H460", "value": "4.86 nM (active)"},
      {"measurement": "GI50", "setting": "NCI-H522", "value": "12.1 nM (active)"},
      {"measurement": "GI50", "setting": "NCI/ADR-RES", "value": "251 nM (active)"},
      {"measurement": "GI50", "setting": "OVCAR-3", "value": "21 nM (active)"},
      {"measurement": "GI50", "setting": "OVCAR-4", "value": "20.3 nM (active)"},
      {"measurement": "GI50", "setting": "OVCAR-5", "value": "37.5 nM (active)"},
      {"measurement": "GI50", "setting": "OVCAR-8", "value": "21.1 nM (active)"},
      {"measurement": "GI50", "setting": "PC-3", "value": "17.7 nM (active)"},
      {"measurement": "GI50", "setting": "RPMI-8226", "value": "20.8 nM (active)"},
      {"measurement": "GI50", "setting": "RXF 393", "value": "3.9 nM (active)"},
      {"measurement": "GI50", "setting": "SF-268", "value": "33.5 nM (active)"},
      {"measurement": "GI50", "setting": "SF-295", "value": "32.3 nM (active)"},
      {"measurement": "GI50", "setting": "SF-539", "value": "37.3 nM (active)"},
      {"measurement": "GI50", "setting": "SK-MEL-28", "value": "26.6 nM (active)"},
      {"measurement": "GI50", "setting": "SK-MEL-2", "value": "21.2 nM (active)"},
      {"measurement": "GI50", "setting": "SK-MEL-5", "value": "17.7 nM (active)"},
      {"measurement": "GI50", "setting": "SK-OV-3", "value": "33 nM (active)"},
      {"measurement": "GI50", "setting": "SN12C", "value": "35.3 nM (active)"},
      {"measurement": "GI50", "setting": "SNB-19", "value": "30.1 nM (active)"},
      {"measurement": "GI50", "setting": "SNB-75", "value": "13.6 nM (active)"},
      {"measurement": "GI50", "setting": "SR", "value": "8.3 nM (active)"},
      {"measurement": "GI50", "setting": "SW-620", "value": "14 nM (active)"},
      {"measurement": "GI50", "setting": "T47D", "value": "24.2 nM (active)"},
      {"measurement": "GI50", "setting": "TK-10", "value": "20.8 nM (active)"},
      {"measurement": "GI50", "setting": "U-251", "value": "21.1 nM (active)"},
      {"measurement": "GI50", "setting": "UACC-257", "value": "34.2 nM (active)"},
      {"measurement": "GI50", "setting": "UACC-62", "value": "19.7 nM (active)"},
      {"measurement": "GI50", "setting": "UO-31", "value": "11.4 nM (active)"}
    ]}
  ]
}
